Drawing on patent US8883797B2, “Metalloenzyme inhibitor compounds” (Viamet Pharmaceuticals, Inc., priority 2011, dated 2014), this text covers MIC and IC50 for 4 compounds.

Values after ≈ are worked out from the molar mass of the structure shown.

In assay [1] the test system is C. albicans. Briefly: Minimum Inhibitory Concentration (MIC) (C. albicans), CLSI M27-A2. Type of assay: cell-based. The note with it: Candida albicans; about 50% growth reduction; approx. 48 h at 35 °C. The procedure: A. Minimum Inhibitory Concentration (MIC) (C. albicans) Compounds of the present disclosure were assessed for their ability to inhibit the growth of common strains of fungus, C. albicans using a standardized procedure (CLSI M27-A2). Stock solutions of the test compounds and standards were prepared in DMSO at 1,600 μg/mL (C. albicans). Eleven, serial, one-half dilutions of compounds were prepared in 96-well plates in RPMI+MOPS. The assay concentration ranges were 8-0.001 μg/mL (C. albicans). Cell suspensions of C. albicans were prepared and added to each well at concentrations of approximately 3.7×10^3 colony-forming-units per milliliter (cfu/mL). All testing was in duplicate. The inoculated plates were incubated for approximately 48 h at 35±1° C. At the completion of incubation the wells of each plate were evaluated visually for the presence of fungal growth. […] For QC purposes C. krusei isolate ATCC 6258 (4.0×10^3 cfu/mL) was included in the VOR assay.

Assay [2] has as its target CYP2C9 (Homo sapiens (Human), UniProt P11712). Kind of assay: biochemical.
Experimental: (§1) B Inhibition of Liver Cytochrome P450 Enzymes
(§2) Solutions of each test compound were separately prepared at concentrations of 20000, 6000, 2000, 600, 200, and 60 μM by serial dilution with DMSO:MeCN (50:50 v/v). The individual test compound solutions were then diluted 20-fold with DMSO:MeCN:deionized water (5:5:180 v/v/v) to concentrations of 1000, 300, 100, 30, 10, and 3 μM. Mixtures of isozyme inhibitors (sulfaphenazole, tranylcypromine, and ketoconazole as specific inhibitors of isozymes 2C9, 2C19, and 3A4, respectively) were prepared containing each inhibitor at concentrations of 6000, 2000, 600, 200, 60, 20, 6, and 2 μM by serial dilution with DMSO:ACN (50:50 v/v). […]
(§3) Pooled human liver microsome suspension (20 mg/mL) was diluted with phosphate buffer to obtain a 5 mg/mL suspension. […] Separate stock solutions of each substrate were prepared in DMSO:MeCN (50:50 v/v), mixed, and diluted in phosphate buffer to obtain a single solution containing each substrate at five times its experimentally determined Km concentration. […]
(§4) Substrate solution and microsome suspension were combined in a 1:1 volume ratio, mixed, and distributed to reaction wells of a PCR plate. […] A portion of the supernatant was analyzed by gradient reverse-phase HPLC with detection by electrospray ionization triple quadrupole mass spectrometry in the positive ion mode. […]
Assay [3] concerns the target CYP2C19 (Homo sapiens (Human), UniProt P33261). Kind of assay: biochemical.
Experimental: as §1, §2, §3, §4
Assay [4] concerns the target CYP3A4 (Homo sapiens (Human), UniProt P08684). Briefly: biochemical.
Experimental: as §1, §2, §3, §4

Chain of CYP3A4 (P08684 whole entry): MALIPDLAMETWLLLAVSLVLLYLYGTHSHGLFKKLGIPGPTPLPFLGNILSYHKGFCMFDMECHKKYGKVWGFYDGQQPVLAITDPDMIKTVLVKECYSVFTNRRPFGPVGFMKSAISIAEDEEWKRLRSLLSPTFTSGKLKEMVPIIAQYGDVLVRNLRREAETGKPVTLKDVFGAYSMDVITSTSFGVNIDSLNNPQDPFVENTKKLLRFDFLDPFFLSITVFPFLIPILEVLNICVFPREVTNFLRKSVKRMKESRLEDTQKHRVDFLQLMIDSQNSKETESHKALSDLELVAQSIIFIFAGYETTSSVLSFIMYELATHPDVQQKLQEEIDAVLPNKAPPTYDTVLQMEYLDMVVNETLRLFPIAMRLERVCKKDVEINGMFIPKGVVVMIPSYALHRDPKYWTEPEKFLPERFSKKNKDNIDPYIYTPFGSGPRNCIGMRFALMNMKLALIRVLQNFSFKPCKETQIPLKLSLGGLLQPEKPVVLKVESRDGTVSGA
Chain of CYP2C19 (P33261 whole entry): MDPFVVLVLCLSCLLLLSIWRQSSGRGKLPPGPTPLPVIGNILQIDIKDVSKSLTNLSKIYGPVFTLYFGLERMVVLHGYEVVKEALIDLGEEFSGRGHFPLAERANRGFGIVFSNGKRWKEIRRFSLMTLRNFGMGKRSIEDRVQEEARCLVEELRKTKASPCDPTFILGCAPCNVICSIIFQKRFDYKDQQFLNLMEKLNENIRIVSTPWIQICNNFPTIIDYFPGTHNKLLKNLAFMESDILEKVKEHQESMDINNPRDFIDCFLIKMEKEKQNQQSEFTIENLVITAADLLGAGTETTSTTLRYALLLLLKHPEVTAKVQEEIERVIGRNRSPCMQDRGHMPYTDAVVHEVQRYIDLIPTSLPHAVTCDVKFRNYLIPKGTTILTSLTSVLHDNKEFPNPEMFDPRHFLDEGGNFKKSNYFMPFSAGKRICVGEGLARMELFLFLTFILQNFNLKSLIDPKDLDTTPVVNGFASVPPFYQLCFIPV
Chain of CYP2C9 (P11712 whole entry): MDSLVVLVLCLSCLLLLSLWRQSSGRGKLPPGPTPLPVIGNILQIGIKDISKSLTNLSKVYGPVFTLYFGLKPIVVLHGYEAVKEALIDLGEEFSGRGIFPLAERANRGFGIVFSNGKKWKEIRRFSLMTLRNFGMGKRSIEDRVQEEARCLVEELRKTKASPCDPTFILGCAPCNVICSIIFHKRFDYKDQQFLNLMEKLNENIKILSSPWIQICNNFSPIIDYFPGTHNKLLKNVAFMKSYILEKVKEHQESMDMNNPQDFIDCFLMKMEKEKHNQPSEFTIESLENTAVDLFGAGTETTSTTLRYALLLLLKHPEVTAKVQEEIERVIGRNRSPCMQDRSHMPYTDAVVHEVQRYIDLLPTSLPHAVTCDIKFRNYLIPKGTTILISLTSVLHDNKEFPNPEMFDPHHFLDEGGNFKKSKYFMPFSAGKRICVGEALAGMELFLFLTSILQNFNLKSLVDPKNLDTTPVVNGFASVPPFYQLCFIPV

For `OC(Cn1cnnn1)(c1ccc(F)cc1F)C(F)(F)c1ccc2cc(Br)ccc2n1` (stereo not shown) [Compound 9, 1-(6-Bromoquinolin-2-yl)-2-(2,4-difluorophenyl)-1,1-difluoro-3-(1H-tetrazol-1-yl)propan-2-ol], the MIC (in general, the smallest concentration in the dilution series that meets the test's criterion for growth inhibition) in assay [1] worked out at 0.016 µg/mL (≈ 0.0332 µM). Moreover, the IC50 (usually the point on the concentration scale where inhibition reaches its midpoint) in assay [2] turned out to be 13 µM; in assay [3], 12 µM; in assay [4] it was 11 µM.
Take `OC(Cn1cnnn1)(c1ccc(F)cc1F)C(F)(F)c1cnc2cc(Cl)ccc2n1` (stereo not shown) [Compound 10, 1-(6-Chloroquinoxalin-2-yl)-2-(2,4-difluorophenyl)-1,1-difluoro-3-(1H-tetrazol-1-yl)propan-2-ol]: in assay [1], the MIC is 0.125 µg/mL (≈ 0.285 µM). Also, the IC50 is 42 µM in assay [2], 29 µM in assay [3] and 45 µM in assay [4].
The compound `OC(Cn1cncn1)(Cn1cncn1)c1ccc(F)cc1F` [Fluconazole, reference compound] registered an MIC in assay [1] of 0.5 µg/mL (≈ 1.63 µM).
Compound `C[C@@H](c1ncncc1F)[C@](O)(Cn1cncn1)c1ccc(F)cc1F` [Voriconazole, reference compound] registered an MIC in assay [1] of 0.016 µg/mL (≈ 0.0458 µM).
